Measured values as given in patent US9133209B2, “Insecticidal 4-amino-thieno[2,3-D]-pyrimidine compounds and methods of their use” (priority 2009, dated 2015).

Assays:
Assay type in all cases: in vivo
[1] = tested on: Cowpea Aphid (aphis craccivora); assay: Cowpea aphid spray test on potted cowpea plants; details: for mortality at 300 ppm: Aphis craccivora, cowpea aphid on potted cowpea plants, sprayed, assessed after 24, 72 and 120 hours, read-out: mortality in comparison with untreated controls; for activity in [%]: Cow pea aphid, 300 ppm, scale 0% no biological activity to 100% total control
Protocol: (§1) Under general conditions, if not otherwise specified, most test solutions are prepared as follow: The active compound is dissolved at the desired concentration in a mixture of 1:1 (vol:vol) distilled water:acetone. The test solution is prepared at the day of use.
(§2) Test solutions are prepared in general at concentrations of 1000 ppm, 500 ppm, 300 ppm, 100 ppm and 30 ppm (wt/vol).
B.1 Cowpea Aphid (aphis craccivora)
Potted cowpea plants colonized with approximately 100-150 aphids of various stages were sprayed after the pest population has been recorded. Population reduction was assessed after 24, 72, and 120 hours.

[2] = tested on: Spider Mite (Tetranychus spp.); assay: Spider mite contact/oral activity on potted cotton plants; details: for activity in [%]: Spider mite, 300 ppm, scale 0% no biological activity to 100% total control; for mortality at 300 ppm: Tetranychus, po, spider mites on potted cotton plants, sprayed, assessed after 24, 72 and 120 hours, read-out: mortality in comparison with untreated controls
Protocol: as §1, §2
B.2 Spider Mite (Tetranychus spp.)
Potted cotton plants colonized with approximately 50 mites of various stages are sprayed after the pest population has been recorded. Population reduction (or increase) after 24, 72, and 120 hours is assessed.

[3] = tested on: Rice Brown Plant Hopper (Nilaparvata lugens); assay: Rice brown plant hopper test on sprayed rice seedlings; details: for activity in [%]: Nilaparvata lugens, 300 ppm, scale 0% no biological activity to 100% total control; for mortality at 300 ppm: Nilaparvata lugens adults on sprayed rice seedlings, 72 hours, read-out: mortality in comparison with untreated controls
Protocol: B.3 Rice Brown Plant Hopper (Nilaparvata lugens)
Rice seedlings were cleaned and washed 24 hours before spraying. The active compounds were formulated in 50:50 acetone:water (vol:vol) and 0.1% vol/vol surfactant (EL 620) was added. Potted rice seedlings were sprayed with 5 ml test solution, air dried, placed in cages and inoculated with 10 adults. Treated rice plants were kept at about 28-29° C. and relative humidity of about 50-60%. Percent mortality was recorded after 72 hours.

[4] = tested on: Yellow Fever Mosquito (Aedes aegypti) neonate larvae; assay: Yellow fever mosquito larval motility assay in microtiter plates
Protocol: B.4. Activity Against Yellow Fever Mosquito (Aedes aegypti)
The compounds were formulated in 100% DMSO and were tested in microtiter plates containing 180 ul 1× Luria Broth media and 10 neonate A. aegypti larvae. The efficacy of a compound was determined based on the motility of the larvae as compared to average motility of control wells containing DMSO only. Compounds with >80% reduction in motility at a concentration of 10 ppm were tested in a dose response assay to determine EC50 values.

[5] = tested on: Ctenocephalides felis fleas; assay: Rat ectoparasiticide model (flea infestation, topical treatment); details: for Efficacy in [%]: Ctenocephalides felis on rats; for reduction of flea counts (% efficacy): rats, topical, 48 hours post-treatment, average, n=2 replicas
Protocol: B.5. Activity in Rat Ectoparasiticide Model
Rats were infested with 50 Ctenocephalides felis fleas. Approximately twenty four hours later rats (3 per group) were treated topically with test compounds at doses of 20 mg/kg or 10 mg/kg body weight. Placebo (vehicle) and positive control groups were included in each study. Forty eight hours post-treatment, fleas were collected from each rat using a flea comb. The percent efficacy per treatment group was calculated using the following formula: % efficacy=100×(C−T)/C
where C is the geometric mean of live fleas recovered in the placebo group and T is the geometric mean of live fleas recovered in the respective treatment group.

Structure (SMILES)	mortality at 300 ppm [1]	activity in [%] [1]	activity in [%] [2]	activity in [%] [3]	also measured
FC(F)(F)Sc1ccc(CNc2ncnc3scc(Cl)c23)cc1 [C.1]	> 80%	–	–	–	–
CC(Nc1ncnc2scc(Cl)c12)c1ccc(SC(F)F)cc1 (centres unmarked) [C.2]	> 80%	–	–	–	–
C[C@@H](Nc1ncnc2scc(Cl)c12)c1ccc(SC(F)(F)F)cc1 [C.3-R]	–	0%	0%	0%	–
C[C@H](Nc1ncnc2scc(Cl)c12)c1ccc(SC(F)(F)F)cc1 [C.3-S, (5-Chloro-thieno[2,3-d]pyrimidin-4-yl)-[(S)-1-(4-trifluoromethylsulfanyl-phenyl)-ethyl]-amine]	–	100%	90%	100%	EC50 (section headed 'Activity at 1 [ppm]') [4]: 0.21 ppm; Efficacy in [%] ([5]; dosage 10 mg/kg): 71%; Efficacy in [%] ([5]; dosage 20 mg/kg): 89%; reduction of flea counts (% efficacy) ([5]; 10 mg/kg): 71%; reduction of flea counts (% efficacy) ([5]; 20 mg/kg): 89%
CC(Nc1ncnc2scc(Cl)c12)c1ccc(SC(F)(F)F)cc1 (centres unmarked) [C.3]	> 80%	100%	90%	100%	mortality at 300 ppm [2]: > 80%; mortality at 300 ppm [3]: > 80%; EC50 (section headed 'Activity at 1 [ppm]') [4]: 0.29 ppm
CC(Nc1ncnc2scc(Cl)c12)c1ccc([S+]([O-])C(F)(F)F)cc1 (centres unmarked) [C.4]	> 80%	–	–	–	–
CC(Nc1ncnc2scc(Cl)c12)c1ccc(SCC(F)(F)F)cc1 (centres unmarked) [C.5]	> 80%	–	–	–	–
CC(Nc1ncnc2scc(Cl)c12)c1ccc(SC(F)(F)C(F)(F)F)cc1 (centres unmarked) [C.6]	> 80%	–	–	–	mortality at 300 ppm [2]: > 80%; mortality at 300 ppm [3]: > 80%
CSc1ccc(C(C)Nc2ncnc3scc(Cl)c23)cc1 (centres unmarked) [CE.1, reference compound]	–	–	–	0%	–
C[C@H](Nc1ncnc2scc(Cl)c12)c1ccc(OC(F)(F)F)cc1 [CE.2, reference compound]	–	–	50%	–	Efficacy in [%] ([5]; dosage 10 mg/kg): 70%; Efficacy in [%] ([5]; dosage 20 mg/kg): 82%
